Earlier results on one molecule are cited in patent US20170020130A1, “METHOD OF PREPARATION AND COMPOSITION OF ANT[…]” (Eltron Research & Development, LLC, priority 2008, published 2017).

Molecules are shown by their SMILES.

For this data set the following is noted: alkaline pH (7.5≦pH≦10.5), near the pKa.

Regarding `CC(=O)OO` [peracetic acid], the “stability (decomposition with evolution of oxygen)” value is listed as “least stable”.
